Experimental data taken from patent US20250049777A1, “PHARMACEUTICALLY ACCEPTABLE SALT AND CRYSTALLINE FORM OF GLP-1 RECEPTOR AGONIST AND PREPARATION METHOD THEREFOR” (JIANGSU HENGRUI PHARMACEUTICALS CO., LTD., priority 2021, published 2025).
Where a name gives a salt, the structure may show the parent alone. Read-outs that look alike come from different tables or passages of the source.

Experiments:
[1] = Hygroscopicity of crystal forms of salts (DVS, 25° C.); format: physicochemical
Text: According to the description of hygroscopic characteristics and the definition of hygroscopic weight gain in “9103 Guidelines for Hygroscopicity of Pharmaceuticals”, Chinese Pharmacopoeia, Volume IV, 2015 edition, the following are defined: • deliquescent: absorbing enough water to form a liquid; • extremely hygroscopic: having a hygroscopic weight gain of not less than 15%; • hygroscopic: having a hygroscopic weight gain of less than 15% and not less than 2%; • slightly hygroscopic: having a hygroscopic weight gain of less than 2% and not less than 0.2%; and • no or almost no hygroscopicity: having a hygroscopic weight gain of less than 0.2%.
Surface Measurement Systems intrinsic DVS was used at 25° C. The observed humidity ranged from 0% to 95%. The step was 10%. The criterion was that the mass change dM/dT for each step was less than 0.002%. TMAX was 360 min. Two cycles were carried out.

[2] = Stability of crystal forms of salts under influencing factors (illumination, high temperature, high humidity); format: physicochemical
Text: The sampling and investigation period was 30 days.

[3] = format: physicochemical; details: for Crystal form: sealed aluminum foil bag
Description: A salt-type sample was sealed with an aluminum foil bag and placed under the conditions of 25° C./60% RH and 40° C./75% RH, respectively, to investigate the stability.

[4] = Illumination (4500 Lux), 5 days, open
[5] = Illumination (4500 Lux), 10 days, open
[6] = Illumination (4500 Lux), 30 days, open

O=C(O)c1ccc2nc(CN3CCC(c4cccc5c4O[C@@H](c4ccc(Cl)cc4F)CO5)CC3)n(C[C@@H]3CCO3)c2c1 [Crystal form I of tartrate salt, 2-((4-((S)-3-(4-chloro-2-fluorophenyl)-2,3-dihydrobenzo[b][1,4]dioxan-5-yl)piperidin-1-yl)methyl)-1-(((S)-oxetan-2-yl)methyl)-1H-benzo[d]imidazole-6-carboxylic acid]
hygroscopic weight gain 0.0% RH to 80.0% RH [1]: 1.44% | Crystal form after DVS ([1]; 0% to 95% RH): Unchanged | % Purity ([2]; 40° C., 5 days, open): 98.4% | Crystal form ([2]; 40° C., 5 days, open): Unchanged | % Purity ([2]; 40° C., 10 days, open): 98.1% | Crystal form ([2]; 40° C., 10 days, open): Unchanged | % Purity ([2]; 40° C., 30 days, open): 97.6% | Crystal form ([2]; 40° C., 30 days, open): Unchanged | % Purity ([2]; 60° C., 5 days, open): 97.9% | Crystal form ([2]; 60° C., 5 days, open): Unchanged | % Purity ([2]; 60° C., 10 days, open): 97.2% | Crystal form ([2]; 60° C., 10 days, open): Unchanged | % Purity ([2]; 60° C., 30 days, open): 96.4% | Crystal form ([2]; 60° C., 30 days, open): Unchanged | % Purity ([2]; 75% RH, 5 days, open): 98.6% | Crystal form ([2]; 75% RH, 5 days, open): Unchanged | % Purity ([2]; 75% RH, 10 days, open): 98.6% | Crystal form ([2]; 75% RH, 10 days, open): Unchanged | % Purity ([2]; 75% RH, 30 days, open): 98.4% | Crystal form ([2]; 75% RH, 30 days, open): Unchanged | % Purity ([2]; 92.5% RH, 5 days, open): 98.7% | Crystal form ([2]; 92.5% RH, 5 days, open): Unchanged | % Purity ([2]; 92.5% RH, 10 days, open): 98.6% | Crystal form ([2]; 92.5% RH, 10 days, open): Unchanged | % Purity ([2]; 92.5% RH, 30 days, open): 98.3% | Crystal form ([2]; 92.5% RH, 30 days, open): Unchanged | % Purity [2, 4]: 98.7% | Crystal form [2, 4]: Unchanged | % Purity [2, 5]: 98.6% | Crystal form [2, 5]: Unchanged | % Purity [2, 6]: 98.3% | Crystal form [2, 6]: Unchanged | % Purity ([2]; Initial condition, 0 days): 98.8% | physical and chemical stability [3]: good physical and chemical stability | Crystal form ([3]; 25° C./60% RH): Unchanged | Crystal form ([3]; 40° C./75% RH): Unchanged | % Purity ([3]; Initial condition): 98.8%
